Test results taken from patent US20150297552A1, “FERTILITY ENHANCING AGENT” (OCTAPAM LIMITED, priority 2012, published 2015).

What was measured:
[1] = test system: Wistar rats; assay: Reproductive function study, agents administered to male rats (Example 1); assay type: in vivo, rat; details: for Amount of gestation female rats / Fertility index / Gestation index / Amount of embryonate female rats: administered to male rats; for Amount of embryonate female rats: of 20 females housed with males; for Amount of babies delivered by 1 female / Post-implantation loss / Postnatal loss after 3 weeks / Pre-implantation loss / Weight of newborn baby rats / Dynamics of babies' body weight, 1st week / Dynamics of babies' body weight, 2nd week / Dynamics of babies' body weight, 3rd week / Dynamics of babies' body weight, 4th week / Craniocaudal size of fetus / Fetus weight / Amount of dead fetuses / Amount of implantation sites / Amount of resorptions / Amount of viable fetuses / Amount of yellow bodies: 10 weeks; for Craniocaudal size of fetus / Fetus weight: 20th day of gestation; for Amount of dead fetuses / Amount of implantation sites / Amount of resorptions / Amount of viable fetuses / Amount of yellow bodies: females sacrificed on 20th day of gestation
Procedure: 180 male and female Wistar rats were tested in the 110 experiments (initial body weight—180-200 g).
Group of 60 male rats was grouped into 6 subgroups each including 10 animals. Each group was treated as follows: group 1—vegetable oil, group 2—β-cyclodextrin, group 3—the agent of present invention, 0.35 mg/kg (the prototype agent), group 4—medication, 0.70 mg/kg (the prototype agent), group 5—the agent of present invention in a clathrate complex, 0.35 mg/kg, group 6—the agent of present invention in a clathrate complex, 0.70 mg/kg.
Male rats of the study subgroups were intragastrically given the above mentioned doses of the prototype agent and the agent of present invention in the clathrate complex form daily during 10 weeks (2-3 cycles of spermatozoa maturation). At the same time, animals of control groups were treated with corresponding amounts of placebo consisting of the vegetable oil or β-cyclodextrin. The placebo was chosen based on the fact that the prototype agent is an oil-soluble compound and the agent of present invention in the clathrate complex form is a water soluble compound. The drugs were administered once daily (at 10 a.m.).
After completion of dosing 6 groups of animals were formed: • the first (vegetable oil)—20 control female rats were housed together with 10 control male rats; the second (β-cyclodextrin)—20 control female rats were housed together with 10 control male rats; the third (the prototype agent, 0.35 mg/kg)—20 study female rats housed together with 10 control male rats; • the fourth (the prototype, 0.70 mg/kg)—20 control female rats were housed together with 10 study male rats; • the fifth (the agent of present invention in the clathrate complex form 0.35 mg/kg)—20 study female rats were housed together with 10 control male rats; • the sixth (the agent of present invention in the clathrate complex form 0.70 mg/kg)—20 control female rats were housed together with 10 study male rats.
During two estrous cycles, vaginal smear preparations were analyzed. Proestrus, estrus and metaestrum phases were detected. Presence of spermatozoa in vaginal smear preparations was registered as the first day of gestation. After 10 days, two subgroups of gestation female rats were formed from female rats in each of […] groups. Female rats of the first subgroups were sacrificed on 20th day of gestation. Amount of fetuses, resorption, implantation sites in the uterine cavity and yellow bodies of ovary were counted. Based on the obtained data, pre-implantation and post-implantation fetal death indexes were calculated according to the following equation: […]
where N1—amount of yellow bodies, N2—amount of implantation sites
where N1—amount of implantation sites N2—amount of viable fetuses.
Further, fertility index (ratio between the amount of female rats housed together with male rats to the amount of female rats having spermatozoa in vaginal smear preparations) and gestation index (ratio between the amount of female rats having spermatozoa in vaginal smear preparations to the amount of animals with full-term pregnancy):
where N1—amount of embryonate female rats N2—amount female rats housed together with male rats
where N1—amount of gestation female rats N2—amount of embryonate female rats Pathological changes (subcutaneous hematomas and edemas, developmental defects of skeletal system and eye globes) were registered.
The second groups of gestation female rats were allowed to parturiate under monitoring. Animals were weighed weekly and weight gain was registered. Parturition date, amount of babies in the brood and weight of babies were recorded. On 21st day after parturition, the survival rate and total and median weight of babies were measured.

[2] = test system: Wistar rats; assay: Reproductive function study, agents administered to male rats and female rats separately (Example 2); assay type: in vivo, rat; details: for Amount of embryonate female rats: of 20 added females; for Amount of babies delivered by 1 female / Amount of dead fetuses / Amount of gestation female rats / Amount of implantation sites / Amount of resorptions / Amount of viable fetuses / Amount of yellow bodies / Carniocaudal size of fetus / Fertility index / Fetus body weight / Gestation index / Post-implantation loss / Postnatal loss after 3 weeks / Pre-implantation loss / Weight of newborn baby rats / Dynamics of infant body weight, 1st week / Dynamics of infant body weight, 2nd week / Dynamics of infant body weight, 3rd week / Dynamics of infant body weight, 4th week: 0.35 mg/kg
Procedure: 180 male and female Wistar rats were studied in the experiments (initial body weight—180-200 g). The prototype agent and the agent of present invention in the clathrate complex form were administered intragastrically in amount of 0.35 mg/kg. Female group of 120 animals was broken into two subgroups: control group (80 animals) and study group (40 animals). The prototype agent and the agent of present invention in the clathrate complex form were intragastrically administered to female rats of study group once a day during 2 weeks (3-4 estrous cycles). Male group of 60 animals was broken into two subgroups: control group (40 animals) and study group (20 animals). The prototype agent and the agent of present invention in the clathrate complex form were intragastrically administered to male rats of study group daily during 10 weeks (2-3 cycles of spermatozoa maturation). Corresponding amounts of placebo comprised of vegetable oil or β-cyclodextrin were administered to animals of the control group with the same intervals. The placebo was chosen based on the fact that the prototype agent is an oil-soluble compound and the agent of present invention in the clathrate complex form is a water soluble compound. The drugs were administered once daily (at 10 a.m.).
After administering the medication 6 groups of animals were formed: • the first (vegetable oil)—20 control female rats were housed together with 10 control male rats; • the second (β-cyclodextrin)—20 control female rats were housed together with 10 control male rats; • the third (the prototype, 0.35 mg/kg)—20 study female rats were housed together with 10 control male rats; • the fourth (the prototype, 0.35 mg/kg)—20 control female rats were housed together with 10 study male rats; • the fifth (the agent of present invention in the clathrate complex form 0.35 mg/kg)—20 study female rats were housed together with 10 control male rats; • the sixth (the agent of present invention in the clathrate complex form 0.35 mg/kg)—20 control female rats were housed together with 10 study male rats.
A pre- and post-implantation fetal death indexes, fertility index and gestation index were calculated according to equations cited in Example 1.

[3] = Solubility character of the agents; assay type: physicochemical
[4] = 0.35 mg/kg intragastrically daily during 10 weeks
[5] = 0.70 mg/kg intragastrically daily during 10 weeks
[6] = administered to female rats, 2 weeks
[7] = administered to male rats, 10 weeks

With c1ccc(C2C3=C(CCCC3)[Se]C3=C2CCCC3)cc1 [Prototype agent, 9-phenyl-sym-octahydroselenoxanthene] the “Amount of gestation female rats” value [1, 4] was 13, the Fertility index [1, 4] was 80% and the Gestation index [1, 4] was 81%. The “Amount of embryonate female rats” value [1, 4] was 16, the “Amount of gestation female rats” value [1, 5] was 14 and the Fertility index [1, 5] was 85%. For the same molecule, the Gestation index [1, 5] was 82%, the “Amount of embryonate female rats” value [1, 5] was 17 and the “Amount of babies delivered by 1 female” value ([1]; male rats 0.35 mg/kg) was 9.2 ± 1.1. The Post-implantation loss ([1]; male rats 0.35 mg/kg) was 5.3%, the “Postnatal loss after 3 weeks” value ([1]; male rats 0.35 mg/kg) was 2.8% and the Pre-implantation loss ([1]; male rats 0.35 mg/kg) was 5.1%. For the same molecule, the “Weight of newborn baby rats” value ([1]; male rats 0.35 mg/kg) was 5.7 ± 0.9 g, the “Dynamics of babies' body weight, 1st week” value ([1]; male rats 0.35 mg/kg) was 19.2 ± 1.1 g and the “Dynamics of babies' body weight, 2nd week” value ([1]; male rats 0.35 mg/kg) was 25.2 ± 1.6 g. The “Dynamics of babies' body weight, 3rd week” value ([1]; male rats 0.35 mg/kg) was 45.7 ± 1.2 g, the “Dynamics of babies' body weight, 4th week” value ([1]; male rats 0.35 mg/kg) was 60.4 ± 1.9 g and the “Craniocaudal size of fetus” value ([1]; male rats 0.35 mg/kg) was 33 ± 2 mm. For the same molecule, the Fetus weight ([1]; male rats 0.35 mg/kg) was 3.3 ± 0.2 g, the “Amount of dead fetuses” value ([1]; male rats 0.35 mg/kg) was 0 and the “Amount of implantation sites” value ([1]; male rats 0.35 mg/kg) was 13.1 ± 1.0. For the same molecule, the Amount of resorptions ([1]; male rats 0.35 mg/kg) was 0.6 ± 0.2, the “Amount of viable fetuses” value ([1]; male rats 0.35 mg/kg) was 12.4 ± 0.8 and the “Amount of yellow bodies” value ([1]; male rats 0.35 mg/kg) was 13.8 ± 1.2. For the same molecule, the “Amount of babies delivered by 1 female” value ([1]; male rats 0.70 mg/kg) was 9.0 ± 1.2, the Post-implantation loss ([1]; male rats 0.70 mg/kg) was 4.8% and the “Postnatal loss after 3 weeks” value ([1]; male rats 0.70 mg/kg) was 2.8%. The Pre-implantation loss ([1]; male rats 0.70 mg/kg) was 5.3%, the “Weight of newborn baby rats” value ([1]; male rats 0.70 mg/kg) was 5.8 ± 1.0 g and the “Dynamics of babies' body weight, 1st week” value ([1]; male rats 0.70 mg/kg) was 19.1 ± 0.8 g. For the same molecule, the “Dynamics of babies' body weight, 2nd week” value ([1]; male rats 0.70 mg/kg) was 25.3 ± 1.2 g, the “Dynamics of babies' body weight, 3rd week” value ([1]; male rats 0.70 mg/kg) was 44.7 ± 1.5 g and the “Dynamics of babies' body weight, 4th week” value ([1]; male rats 0.70 mg/kg) was 59.8 ± 2.4 g. The “Craniocaudal size of fetus” value ([1]; male rats 0.70 mg/kg) was 33 ± 1 mm, the Fetus weight ([1]; male rats 0.70 mg/kg) was 3.3 ± 0.1 g and the “Amount of dead fetuses” value ([1]; male rats 0.70 mg/kg) was 0. For the same molecule, the “Amount of implantation sites” value ([1]; male rats 0.70 mg/kg) was 12.5 ± 1.0, the Amount of resorptions ([1]; male rats 0.70 mg/kg) was 0.5 ± 0.2 and the “Amount of viable fetuses” value ([1]; male rats 0.70 mg/kg) was 11.9 ± 0.7. The “Amount of yellow bodies” value ([1]; male rats 0.70 mg/kg) was 13.2 ± 0.9, the “Amount of embryonate female rats” value ([2]; administered to female rats, 0.35 mg/kg intragastrically once a day during 2 weeks) was 16 and the “Amount of babies delivered by 1 female” value [2, 6] was 8.6 ± 0.9. For the same molecule, the “Amount of dead fetuses” value [2, 6] was 0, the “Amount of gestation female rats” value [2, 6] was 14 and the “Amount of implantation sites” value [2, 6] was 9.9 ± 0.6. For the same molecule, the Amount of resorptions [2, 6] was 0.4 ± 0.2, the “Amount of viable fetuses” value [2, 6] was 9.2 ± 1.1 and the “Amount of yellow bodies” value [2, 6] was 10.7 ± 0.7. For the same molecule, the “Carniocaudal size of fetus” value [2, 6] was 35 ± 2 mm, the Fertility index [2, 6] was 80% and the Fetus body weight [2, 6] was 3.4 ± 0.2 g. For the same molecule, the Gestation index [2, 6] was 88%, the Post-implantation loss [2, 6] was 7.1% and the “Postnatal loss after 3 weeks” value [2, 6] was 2.5%. The Pre-implantation loss [2, 6] was 7.5%, the “Weight of newborn baby rats” value [2, 6] was 6.2 ± 0.9 g and the “Dynamics of infant body weight, 1st week” value [2, 6] was 18.8 ± 1.2 g. The “Dynamics of infant body weight, 2nd week” value [2, 6] was 26.3 ± 1.5 g, the “Dynamics of infant body weight, 3rd week” value [2, 6] was 47.4 ± 2.0 g and the “Dynamics of infant body weight, 4th week” value [2, 6] was 61.5 ± 2.8 g. The “Amount of embryonate female rats” value ([2]; administered to male rats, 0.35 mg/kg intragastrically daily during 10 weeks) was 17, the “Amount of babies delivered by 1 female” value [2, 7] was 8.7 ± 0.8 and the “Amount of dead fetuses” value [2, 7] was 0. For the same molecule, the “Amount of gestation female rats” value [2, 7] was 15, the “Amount of implantation sites” value [2, 7] was 10.1 ± 1.1 and the Amount of resorptions [2, 7] was 0.4 ± 0.2. The “Amount of viable fetuses” value [2, 7] was 9.4 ± 1.0, the “Amount of yellow bodies” value [2, 7] was 10.8 ± 0.8 and the “Carniocaudal size of fetus” value [2, 7] was 35 ± 1 mm. The Fertility index [2, 7] was 85%, the Fetus body weight [2, 7] was 3.5 ± 0.2 g and the Gestation index [2, 7] was 88%. For the same molecule, the Post-implantation loss [2, 7] was 6.9%, the “Postnatal loss after 3 weeks” value [2, 7] was 2.6% and the Pre-implantation loss [2, 7] was 6.5%. The “Weight of newborn baby rats” value [2, 7] was 6.4 ± 1.2 g, the “Dynamics of infant body weight, 1st week” value [2, 7] was 20.1 ± 0.9 g and the “Dynamics of infant body weight, 2nd week” value [2, 7] was 27.2 ± 1.5 g. The “Dynamics of infant body weight, 3rd week” value [2, 7] was 45.9 ± 1.9 g, the “Dynamics of infant body weight, 4th week” value [2, 7] was 61.9 ± 2.6 g and the “Solubility (oil-soluble / water soluble)” value [3] was “oil-soluble”.
